From patent US20160008298A1, “XANTHOHUMOL-BASED COMPOUNDS AND COMPOSITIONS THEREOF, AND METHODS OF MAKING AND USING THE SAME” (Oregon State University, priority 2014, published 2016)

Columns and labels:
[1] = system: C57BL6/J mice; assay: Plasma metabolites at sacrifice; type: in vivo, mouse; details: 14 weeks, 30 mg/kg/day; for Mean fasting plasma glucose at time of sacrifice: 6 hour fast, control 158.2±29.6; for Insulin level average: control 1.01±0.44; for Average plasma triglycerides: control 87.5±6.6; for Plasma cholesterol average: control 173.9±31.9
Protocol: The total number of C57BL6/J mice was 48, with 12 mice belonging to each of 4 treatment groups. Duration of the feeding was 14 weeks. Mouse feed contained high fat content (60% of kCal), and was supplemented with XN, DXN, or TXN in the treatment groups. XN, DXN and TXN content within the mouse diet were designed to deliver a dose of 30 mg/kg/day body weight. Food intake was measured three times per week by weighing the food pellet before placement in the cage, and at the time of feed changing by weighing uneaten food. Mice were unrestricted in dietary intake, being allowed to eat as much food as desired. Mice were weighed once per week. Groups included low dose (30 mg/kg) XN, DXN, TXN and no supplement control. Mice were maintained in accordance with the Oregon State University Institutional Animal Care and Use Committee (IACUC) regulations. One mouse was maintained on a standard AIN-93M chow diet to be used as a healthy reference during glucose tolerance assays.
Plasma was collected at sacrifice (14 weeks) to analyze for plasma glucose, triglycerides, cholesterol and insulin. Plasma glucose was assayed using the Wako Autokit Glucose kit (Wako Pure Chemical Industries, Ltd.). […] Samples were allowed to incubate for 5 minutes, and then the absorbance of each well was measured at a wavelength of 505 nm using a SpectraMax 190 spectrophotometer. Glucose was calculated using a 6-point calibration curve containing concentrations of 0, 25, 50, 100, 200 and 400 mg/dL.
Plasma triglycerides were measured using the Infinity™ Triglycerides Reagent kit (Thermo Fisher Scientific, Inc.). […] Absorbance at 500 nm was then measured on a SpectraMax 190 spectrophotometer. Triglyceride levels were calculated from a 6-point calibration curve.
Plasma cholesterol was measured using the Infinity™ Cholesterol Liquid Stable Reagent assay kit (Thermo Fisher Scientific, Inc.). Five μL of plasma from each sample was combined with 195 μL of Infinity™ Cholesterol Liquid Stable Reagent (50 mM phosphate buffer (pH 6.7) containing 200 U/L cholesterol oxidase, 500 U/L cholesterol esterase, 300 U/L peroxidase (horseradish), 0.25 mM 4-aminoantipyrine, 10 mM hydroxybenzoic acid) and incubated for 5 minutes at room temperature. Cholesterol absorbance was then measured using a SpectraMax 190 spectrophotometer at 500 nm, and concentrations were calculated using a 6-point calibration curve.
Plasma insulin levels were assayed using the ALPCO 80-INSMS-E01 mouse insulin enzyme-linked immunosorbent assay (ELISA) kit (ALPCO diagnostics, Salem, N.H.). Ten μL of plasma from each sample was loaded into a 96-well plate (provided in kit) and combined with 75 μL of provided conjugate buffer. The plate was placed on a shaker and incubated for 2 hours at room temperature while shaking at 800 rpm. The buffer was then discarded and the wells were washed 5 times with 100 μL of provided wash buffer. […] After incubation, 100 μL of stop solution was added to each well, and the plate was analyzed on a SpectraMax 190 spectrophotometer at 450 nm. Sample insulin concentrations were calculated using a 6-point calibration curve.

[2] = Mouse feeding experiment, weight gain; type: in vivo; details: 30 mg/kg/day in high fat diet, 12 weeks
Protocol: Over the course of 12 weeks, mouse weights were recorded once per week and the average weights were calculated for each group.

[3] = system: mice; details: mouse; cited from earlier work
[4] = Low and high XN diet feeding for 12 weeks, body weight and food intake; type: in vivo, mouse; details: high-fat fed C57BL/6J mice; for body weight gain compared to vehicle: oral, 12 weeks
Protocol: FIG. 27 is a graph showing weekly body weights of C57BL/6J mice fed control, low XN (30 mgkg body weight/day) and high XN (60 mg/kg body weight/day) diets for 12 weeks.
FIG. 28 is a graph showing no difference in food intake between treated and untreated mice for the studies from FIG. 27.

[5] = system: mice; assay: Mouse LD50; type: in vivo
[6] = system: C2C12 cells; assay: MTT cell viability assay; type: cell-based, mouse; details: for cell viability after one hour of exposure: C2C12, 1 hour, up to 50 μM; for concentration at which cell viability was decreased: C2C12, 24 hours of exposure
Protocol: Mouse C2C12 skeletal muscle myoblasts (purchased from ATCC, Manassas, Va., USA) were first seeded in 75 cm2 flasks using a culture medium consisting of DMEM (Life Technologies, Grand Island, N.Y., USA), 10% fetal bovine serum (FBS; Atlanta Biologicals, Lawrenceville, Ga., USA), high glucose, L-glutamine, phenol red, 1 mM sodium pyruvate and 100 units/mL penicillin, 100 μg/mL streptomycin. The C2C12 cells were incubated at 37° C. in a humidified atmosphere of 5% CO2 until they were confluent. Then, they were obtained by trypsinization and seeded at a specific density in the plates of choice depending on the experiment.
For cell viability experiments (MTT assay), C2C12 cells were plated in 96-well plates at a density of 4,000 cells per well in 200 μL of growth medium (identical to the culture medium). After 48 hours of incubation, the medium was removed and the cells were treated with fresh solutions of various concentrations of XN, DXN or TXN in phenol red-free growth medium. The final concentrations of XN, DXN, TXN were 1, 2, 5, 8, 10, 25, 50 μM, all in quadruplicate wells, in the 96-well plates. The medium used consists of phenol red free DMEM (Life Technologies, Grand Island, N.Y., USA), 10% FBS, 1% glutamine, 1 mM of sodium pyruvate and 100 units/mL penicillin, 100 μg/mL streptomycin. The plates were then incubated for 24 hours or 1 hour. After removing the medium, the cells were treated with 0.5 mg/mL solution of MTT 3-(4,5-dimethylthiazol-2-yl)-2,5-diphenyltetrazolium bromide in phenol red-free growth medium and incubated for two hours. After removing the medium and adding a solution of acidified isopropanol to each well, the absorbance of each well was measured at 570 nm by using a spectrometer (SpectraMax 190).
Two MTT assays were conducted (FIGS. 11A and 11B): after one hour and 24 hours of exposure.

[7] = system: rats; assay: XN administered to rats at human equivalent doses; type: in vivo, rat
Protocol: In particular disclosed embodiments, the human equivalent dose of 180 mg XN/day reduced body weight gain by 14% and reduced fasting plasma glucose by 25% when administered to rats. In some embodiments, the human equivalent dose of 60 or 180 mg XN/day reduced the formation of products of dysfunctional fatty acid oxidation by up to 55% when administered to rats. Solely by way of example, the range 0.1-500 mg described above in Table 2 for XN covers the effective human equivalent doses of 60 mg/day to 180 mg/day of XN.

[8] = system: C2C12 mouse myocytes; assay: Cellular uptake by LC-MS/MS; type: in vitro ADME; details: 5 μM, one hour
Protocol: Cellular uptake investigations were performed using C2C12 mouse myocytes. Cells were cultured in 75 cm2 flasks using Dulbecco's Modified Eagle Medium (DMEM) obtained from Sigma-Aldrich, which was supplemented with 10% Fetal Bovine serum (FBS) and 1% penicillin/streptomycin solution (PS). Cultures were maintained in an incubator at 37° C. and 5% CO2.
Uptake comparisons were conducted by seeding three 12-well plates with 1 mL of C2C12 cells in suspension with a density of 100,000 cells/mL, which were then incubated until confluent. Four treatment groups were compared, including XN, DXN, TXN and a no compound control. Each compound was tested in quadruplicate in the presence of cells and in medium not exposed to cells. Medium not exposed to cells was examined for compound concentration to help account for protein binding in medium. Confluent cells were subsequently treated with fresh DMEM containing 1% FBS, 1% PS, as well as 5 μM XN, DXN, or TXN and incubated at 37° C. and 5% CO2 for one hour. Following incubation, cell medium was collected and the cells were washed once using Hanks Balanced Salt Solution (HBSS). HBSS was then aspirated, and 0.5 mL of cell extraction buffer (50% methanol:ethanol, v:v) was added to each well and the plates were covered with a plastic adhesive plate cover. The plates were placed in a freezer and maintained at −80° C. for 24 hours. After freezing, the plates were removed from the freezer and the cells were removed from the wells using a cell scraper and collected. An additional 0.5 mL of extraction buffer was added to each well as a rinse, which was collected and added to the cell extracts. […]
All cell culture samples were analyzed by LC-MS/MS using an Applied Biosystems API 4000 Q-trap triple quadrupole mass spectrometer. […] Once concentrations could be determined, mass balance of XN, DXN or TXN was calculated based on the average total volume of the sample, approximately 0.995 mL for cell medium, and 0.75 mL for cellular extracts.

[9] = system: C2C12 muscle mouse cells; assay: Seahorse cell titration assay; type: cell-based; details: 2 μM, 20,000 cells/well
Protocol: As advised by Seahorce Bioscience, running a cell titration assay with FCCP at different concentrations prior to any Seahorse experiment is an important step to determine proper cell density for the cell line used. Then, oligomycin was tested at different concentrations at the proper cell density in order to determine the optimal working concentration. These optimization and titration assays offered starting conditions in determining the uncoupling effects on the mitochondria.
In the cell titration assay, cells were plated at 10,000, 20,000 and 40,000 cells/wells and FCCP was injected at 0.3 μM or 0.5 μM. […] DXN was also injected at 2 μM at 20,000 cells/well to have an idea of its potential effects on OCR.

[10] = human equivalent dose of 180 mg XN/day

Row | SMILES | Mean fasting plasma glucose at time of sacrifice [1] [mg/dL] | Insulin level average [1] [ng/mL] | Average plasma triglycerides [1] [mg/dL] | Plasma cholesterol average [1] [mg/dL] | weight gain compared to the control [2] | LD50 [3] [mg/kg] | food intake ([4]; 30 and 60 mg/kg) | body weight gain compared to vehicle ([4]; 30 mg/kg (low dose)) | body weight gain compared to vehicle ([4]; 60 mg/kg (high dose)) | LD50 dose relative to the effective dose level [5] | cell viability after one hour of exposure [6] | concentration at which cell viability was decreased [6] [µM] | reduction of body weight gain [7, 10] [%] | reduction of fasting plasma glucose [7, 10] [%] | reduction of the formation of products of dysfunctional fatty acid oxidation ([7]; human equivalent dose of 60 or 180 mg XN/day) | cellular uptake (of total amount of compound applied to cells) [8] | increase of OCR [9]
1 | COc1cc(O)c(CC=C(C)C)c(O)c1C(=O)/C=C/c1ccc(O)cc1 [XN, xanthohumol] | 169.1 ± 28.7 | 1.19 ± 0.68 | 80.7 ± 4.2 | 196.2 ± 28.3 | followed DXN, then XN | > 2000 | not altered | gain less weight | gain less weight | more than 50 times | did not significantly affect cell viability | 50 | 14 | 25 | up to 55% | approximately 6.6% | 
2 | COc1cc(O)c(CC=C(C)C)c(O)c1C(=O)CCc1ccc(O)cc1 [DXN, α,β-dihydroxanthohumol] | 150.5 ± 45.0 | 1.04 ± 0.77 | 84.5 ± 4.9 | 167.2 ± 33.3 | followed DXN, then XN |  |  |  |  |  | did not significantly affect cell viability | 8 |  |  |  | 7.8% | 204 % of the baseline
3 | COc1cc(O)c(CCC(C)C)c(O)c1C(=O)CCc1ccc(O)cc1 [TXN, tetrahydroxanthohumol] | 116.1 ± 24.1 | 0.500 ± 0.24 | 76.4 ± 7.8 | 160.7 ± 30.7 | most dramatic reduction in weight gain compared to the control |  |  |  |  |  | did not significantly affect cell viability | 25 |  |  |  | 6.9% | 
